Data reported in patent US12252555B2 (CHINA NATIONAL RESEARCH INSTITUTE OF FOOD & FERMENTATION …, priority 2018, dated 2025).
No end group written: not given here.

How the values were obtained:
Format in all cases: biochemical
[1] = Determination of capacity to scavenge DPPH free radicals; conditions: positive control; FIG. 10
Method: 8.1 Determination of Capacity to Scavenge DPPH Free Radicals
Samples in different concentrations are taken and mixed with DPPH-anhydrous ethanol solution ([…]) in a volume ratio of 1:1, and stored for 30 min under a dark condition, and the absorbance of the mixed solution is measured at 517 nm in ultraviolet-visible spectrum, and recorded as Ai. Correspondingly, sample solutions in different mass concentrations are evenly mixed with anhydrous ethanol solution in a volume ratio of 1:1, and stored for 30 min under a dark condition at room temperature, and the absorbance of the mixed solution is measured at 517 nm in ultraviolet-visible spectrum, and recorded as Aj. Distilled water is evenly mixed with DPPH-anhydrous ethanol solution ([…]) in a volume ratio of 1:1, and stored for 30 min under a dark condition at room temperature, and the absorbance is measured at 517 nm in ultraviolet-visible spectrum, and recorded as Ac. Experiment of each group is repeated three times, and average values are obtained and standard deviations are calculated. The sodium selenite and the pea oligopeptide are used as raw material controls before chelation, and ascorbic acid is used as a positive control, the scavenging rate of the sample on DPPH free radicals is calculated according to the following formula:
(§1) [formula] 8.2 Determination of Capacity to Scavenge OH Free Radicals

[2] = Determination of reducing capacity (K3[Fe(CN)6]/FeCl3, absorbance at 700 nm); conditions: absorbance at 700 nm about 1.6; FIG. 14
Method: (§2) [formula] 8.3 Determination of Reducing Capacity
Sample solutions in different concentrations are taken and evenly mixed with phosphate buffer (0.2 mol/L, pH 6.6) and K3[Fe(CN)6] solution with a mass concentration of 1% in a volume ratio of 1:1:1, stored in a water bath at 50° C. for 10 min, and quickly cooled with cold water. 1 volume of trichloroacetic acid solution with a mass concentration of 10% is added, shaken well quickly and thoroughly under a dark condition, and then 1 volume of reaction mixture is taken out, and added with 1 volume of distilled water and 0.2 volume of FeCl3 solution with a mass concentration of 0.1%, and after shaking well quickly and thoroughly under a dark condition, standing for 10 min, the absorbance is measured at 700 nm, and recorded as A3. The sodium selenite and the pea oligopeptide are used as raw material controls before chelation, and ascorbic acid is used as an overall control, the absorbance A3 is directly used as a parameter of the reducing capacity of the sample. Experiment of each group is repeated three times, and average values are obtained and standard deviations are calculated.

[3] = Determination of capacity to scavenge OH free radicals; conditions: positive control; FIG. 12
Method: as §1
Sample solutions in different concentrations are taken and evenly mixed with FeSO4 ([…]) and salicylic acid-anhydrous ethanol solution ([…]) in a volume ratio of 1:2:2, the reaction is started with 1 volume of H2O2 solution ([…]), reacting in a water bath at 37° C. for 1 h, and the absorbance is measured at 510 nm in ultraviolet-visible spectrum, and recorded as A2. Correspondingly, the H2O2 solution ([…]) is replaced with 1 volume of water, and the ratio of remaining reagents remains unchanged, reacting in a water bath at 37° C. for 1 h, and the absorbance is measured at 510 nm in ultraviolet-visible spectrum, and recorded as A20. The sample solution is replaced with distilled water, and the ratio of remaining reagents remains unchanged, reacting in a water bath at 37° C. for 1 h, and the absorbance is measured at 510 nm, and recorded as A02. Experiment of each group is repeated three times, and average values are obtained and standard deviations are calculated. The sodium selenite and the pea oligopeptide are used as raw material controls before chelation, and ascorbic acid is used as a positive control, the scavenging rate of the sample on OH free radicals is calculated according to the following formula:
as §2

[4] = Identification of oxidation resistance by ABTS+ method (Trolox standard); parameters: Total antioxidant capacity: unit not given here; conditions: for Total antioxidant capacity: ABTS+ method, sample 5 mg/mL, Trolox standard curve, 734 nm; for Increased multiple, compared with selenium-chelating pea oligopeptide: ratio of total antioxidant capacity
Description: 9.2 Identification of Oxidation Resistance of Peptide Segment

Molecule | IC50 value of scavenging DPPH free radical [1] [µg/mL] | Required concentration for absorbance value about 1.6 (reducing capacity) [2] [µg/mL] | IC50 value of scavenging OH free radical [3] [µg/mL] | Total antioxidant capacity [4] | Increased multiple, compared with selenium-chelating pea oligopeptide [4]
O=C1O[C@H]([C@@H](O)CO)C(O)=C1O [ascorbic acid] | 4.85 ± 0.02 | 400 | 1024.87 ± 5.96 |  | 
HQMPKP [standard synthetic peptide segment identified in the selenium-chelating pea oligopeptide] |  |  |  | −9.53 | 
PPKIYP [standard synthetic peptide segment identified in the selenium-chelating pea oligopeptide] |  |  |  | 211.12 | 3.90
TGRGAP [standard synthetic peptide segment identified in the selenium-chelating pea oligopeptide] |  |  |  | 3.25 | 0.06
Thr-Ser-Ser-Leu-Pro (TSSLP; listed as Pisum sativum) [standard synthetic peptide segment identified in the selenium-chelating pea oligopeptide] |  |  |  | 5.55 | 0.10
